Target: T1, Fatty acid amide hydrolase (FAAH) (Mus musculus, UniProt O08914)
T1 construct: endogenous FAAH in BV2 microglial cell membrane fraction
T1 sequence (O08914 1-579): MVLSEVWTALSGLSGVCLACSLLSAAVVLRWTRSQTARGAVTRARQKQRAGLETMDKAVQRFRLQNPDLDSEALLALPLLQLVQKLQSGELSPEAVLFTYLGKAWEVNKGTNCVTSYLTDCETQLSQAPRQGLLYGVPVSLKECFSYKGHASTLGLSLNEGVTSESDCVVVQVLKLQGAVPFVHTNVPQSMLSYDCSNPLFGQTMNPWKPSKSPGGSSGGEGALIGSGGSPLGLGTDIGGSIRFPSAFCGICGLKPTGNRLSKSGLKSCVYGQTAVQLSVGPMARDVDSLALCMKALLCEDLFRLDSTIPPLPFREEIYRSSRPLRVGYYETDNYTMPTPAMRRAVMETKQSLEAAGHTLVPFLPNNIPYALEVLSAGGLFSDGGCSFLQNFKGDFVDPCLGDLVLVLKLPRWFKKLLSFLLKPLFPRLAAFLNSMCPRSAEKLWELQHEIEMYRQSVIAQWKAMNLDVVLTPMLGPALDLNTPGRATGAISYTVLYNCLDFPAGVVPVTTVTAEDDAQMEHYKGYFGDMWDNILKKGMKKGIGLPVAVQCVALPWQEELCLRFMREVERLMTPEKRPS
Assay: radiolabeled AEA hydrolysis in BV2 membranes; blocked by FAAH inhibitors, reduced […] by FAAH siRNA
Assay type: cell-based

Which “radiolabeled AEA hydrolysis in BV2 membranes; blocked by FAAH inhibitors, reduce” value does the source give for `CCCCC/C=C\C/C=C\C/C=C\C/C=C\CCCC(=O)NCCO` [anandamide] here?
Its value is “These results indicated that all AEA hydrolysis activity was attributed to FAAH in BV2 microglial cells”.

— PMC6562696, “Anti-Inflammatory Effects by Pharmacological Inhibition or Knockdown of Fatty Acid Amide Hydrolase in BV2 Microglial Cells” (Cells, 2019)
